One series addresses T1, hM2 (Homo sapiens, UniProt P08172).
T1 sequence (P08172 1-466): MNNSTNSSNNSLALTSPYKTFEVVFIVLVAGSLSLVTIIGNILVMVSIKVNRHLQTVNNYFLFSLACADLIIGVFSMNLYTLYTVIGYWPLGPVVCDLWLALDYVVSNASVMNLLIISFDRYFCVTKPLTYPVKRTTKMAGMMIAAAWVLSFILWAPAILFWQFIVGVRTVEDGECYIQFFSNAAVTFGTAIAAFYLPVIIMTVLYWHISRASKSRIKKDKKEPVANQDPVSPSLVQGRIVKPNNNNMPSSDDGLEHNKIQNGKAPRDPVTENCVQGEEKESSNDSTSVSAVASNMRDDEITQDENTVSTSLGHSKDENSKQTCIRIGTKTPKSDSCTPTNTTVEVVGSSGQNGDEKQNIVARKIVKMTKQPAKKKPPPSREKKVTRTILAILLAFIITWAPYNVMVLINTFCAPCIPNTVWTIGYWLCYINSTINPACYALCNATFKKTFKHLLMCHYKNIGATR
As to the kind of experiment: Competitive [3H]NMS radioligand binding, CHO-K1 membranes expressing hM2. The settings on record: [3H]NMS, CHO-hM2 cell membrane preparations; >1000 values from two independent (single-concentration) experiments; read-out: Affinity: Ki ± SD hM2. The source says: (§1) The arecaidine esters’ affinities towards the human mAChR subtypes hM1–hM5 were studied in a competitive radioligand binding assay using CHO-K1 cell membrane homogenates expressing a single mAChR subtype and tritiated N-methyl scopolamine methyl chloride ([^3H]NMS). To speed up our affinity testing regime, we subjected all test substances to preliminary single-concentration displacement assays, as described previously. Compounds with percent displacements below 75% at any of the subtypes were dropped from further investigations (Table S1). For compounds meeting the percent displacement threshold (8c, 10b, 10c, 17b, 18b, and 25), inhibition constants (Ki) were assessed in dose-dependent displacement experiments (Table 2).
(§2) Cell membranes bearing hM1-hM5 receptors were prepared as described previously. Briefly, stably transfected CHO-K1 cells were grown to at least 80% confluency in T175 flasks, washed with ice-cold DPBS, and scraped into a mixture of ice-cold 2 mL 10 mM Tris-HCl, 1 mM EDTA-buffer, pH 7.4 and 200 µL protease inhibitor. A cell homogenate was prepared by passing the cell suspension through a G29 needle. The cell homogenates corresponding to two T175 flasks were combined and subsequently centrifuged (10 min, 1000× g, 4 °C). Ultracentrifugation of the supernatant (1 h, 100,000× g, 4 °C) yielded a membrane pellet, which was suspended in 250 µL 50 mM Tris-HCl buffer, pH 7.4 and stored at −80 °C.
(§3) Then, 5 µL of test compound in DMSO, 50 µL of [^3H]NMS in assay buffer, and 445 µL of membrane suspension in assay buffer were incubated for 90 min at 23 °C in PP tubes. Maximum binding was measured by using 5 µL DMSO, and nonspecific binding was measured by using 5 µL of 1 µM scopolamine in DMSO. The effective concentration of [^3H]NMS was 0.2 nM, 0.3 nM, 0.8 nM, 0.2 nM, and 1 nM for M1–M5 and 4–30 µg membrane were used per tube. The membrane-bound radioactivity was recovered by filtration through Whatman™ GF/B glass fiber filters presoaked in aqueous 0.1% PEI using an M-36 tygon tubed cell harvester (Brandel®, Gaithersburg, MD, USA). Membranes were washed three times with ice-cold washing buffer (50 mM Tris, pH 7.4) before being dried, transferred to 2 mL scintillation cocktail (UltimaGold™, high flashpoint LSC cocktail, PerkinElmer, Waltham, MA, USA) and counted in a β-counter (Hidex TDCR liquid scintillation counter in CPM mode). IC50 values were calculated by a variable slope logistic regression using at least five distinct concentrations of test compounds, pipetted in triplicates.

Series [1] can be described thus: High-throughput HPLC-logD. It counts as physicochemical. Particulars: octadecyl-poly(vinyl alcohol) column, methanol / 0.01 M sodium phosphate buffer pH 7.4. The source says:
For this, logD values were estimated in an HPLC-based high-throughput assay employing an octadecyl-poly(vinyl alcohol) stationary phase. The absence of silanol groups renders this type of column especially suited in case of analytes with hydrogen bond donor capabilities as it avoids overestimating their lipophilicity.
Briefly, a mixture of toluene (≥98%, Sigma-Aldrich, St. Louis, MO, USA) and triphenylene (≥99.9%, Carl Roth, Karlsruhe, Germany) was used as internal standard. Samples were dissolved in the internal standard mixture. Using gradient elution, the injection volume was set to 7 µL, the flow rate was 1.5 mL/min, and the mobile phase consisted of a mixture of methanol and 0.01 M sodium phosphate buffer pH 7.4. The HPLC-logD values were derived from the measured retention times following the previously published equation [21, 40].

The target in the next series is T2, hM1 (Homo sapiens, UniProt P11229).
T2 sequence (P11229 1-460): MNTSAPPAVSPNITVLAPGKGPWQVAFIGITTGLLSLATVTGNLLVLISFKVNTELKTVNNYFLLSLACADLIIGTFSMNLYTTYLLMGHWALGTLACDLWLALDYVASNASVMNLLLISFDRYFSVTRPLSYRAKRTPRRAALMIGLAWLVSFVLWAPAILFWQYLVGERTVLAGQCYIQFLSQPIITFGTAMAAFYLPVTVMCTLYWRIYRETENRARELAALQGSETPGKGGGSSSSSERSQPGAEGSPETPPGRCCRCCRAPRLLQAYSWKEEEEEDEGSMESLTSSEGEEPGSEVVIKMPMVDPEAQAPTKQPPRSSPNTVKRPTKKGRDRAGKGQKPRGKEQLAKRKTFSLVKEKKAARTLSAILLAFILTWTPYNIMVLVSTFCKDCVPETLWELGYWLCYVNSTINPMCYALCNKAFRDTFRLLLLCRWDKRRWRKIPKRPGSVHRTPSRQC
The series can be described thus: Competitive [3H]NMS radioligand binding, CHO-K1 membranes expressing hM1. The settings on record: for Ki: [3H]NMS, CHO-hM1 cell membrane preparations, read-out: Affinity: Ki ± SD hM1; for x-Fold Selectivity for hM1 vs. hM3: ratio of the Ki values hM3/hM1; for x-Fold Selectivity for hM1 vs. hM4: ratio of the Ki values hM4/hM1; for x-Fold Selectivity for hM1 vs. hM5: ratio of the Ki values hM5/hM1; for x-Fold Selectivity for hM1 vs. hM2: ratio of the Ki values hM2/hM1.
Text: as §1, §2, §3

A word on the Ki: it is the equilibrium dissociation constant of an inhibitor or competing ligand from its target. In general, chromatographic logD refers to lipophilicity estimated from chromatographic retention. Low values mean lower lipophilicity, high ones higher lipophilicity. For orientation: melting point means the temperature, or range, at which the solid turns liquid.

On to `CN1CCC=C(C(=O)OC(c2ccccc2)c2cccc(O)c2)C1` (stereo not drawn) [Compound 17b, (3-hydroxyphenyl)(phenyl)methyl 1-methyl-1,2,5,6-tetrahydropyridine-3-carboxylate], for which the melting point lay in the range of 143 to 144 °C. Besides, on hM2, the Ki stood at 172 ± 20 nM. In series [1], this molecule came in with a chromatographic logD of 2.69 ± 0.01. Moreover, on hM1, the Ki came to 5.5 ± 0.5 nM, the “x-Fold Selectivity for hM1 vs. hM3” value is listed as 3.7 x-fold, the “x-Fold Selectivity for hM1 vs. hM4” value is reported as 3.3 x-fold and the “x-Fold Selectivity for hM1 vs. hM5” value came to 2.0 x-fold.

With `CN1CCC=C(C(=O)OCc2ccc(CO)cc2)C1` [Compound 8c, 4-(hydroxymethyl)benzyl 1-methyl-1,2,5,6-tetrahydropyridine-3-carboxylate], the Ki on hM2 was above 1000 nM. Also, in series [1], the chromatographic logD was found to be 1.03 ± 0.04. Also, at hM1, the Ki is 525 ± 36 nM, the “x-Fold Selectivity for hM1 vs. hM2” value is listed as above 1.9 x-fold, the “x-Fold Selectivity for hM1 vs. hM3” value amounted to 1.3 x-fold and the “x-Fold Selectivity for hM1 vs. hM4” value is 1.3 x-fold. The “x-Fold Selectivity for hM1 vs. hM5” value at hM1 turned out to be 0.8 x-fold.

As to `CN1CCC=C(C(=O)OCC(O)(c2ccccc2)c2ccccc2)C1` [Compound 25, 2-hydroxy-2,2-diphenylethyl 1-methyl-1,2,5,6-tetrahydropyridine-3-carboxylate], the melting point fell in the range of 150 to 153 °C. For the same molecule, the Ki at hM2 was above 1000 nM. The chromatographic logD in series [1] is 2.69 ± 0.01. Moreover, at hM1, the Ki was found to be 231 ± 60 nM, the “x-Fold Selectivity for hM1 vs. hM2” value is given as above 4.3 x-fold, the “x-Fold Selectivity for hM1 vs. hM3” value is given as 1.2 x-fold and the “x-Fold Selectivity for hM1 vs. hM4” value came to 0.9 x-fold. The “x-Fold Selectivity for hM1 vs. hM5” value at hM1 is on record as 1.2 x-fold.

Turning to `CN1CCC=C(C(=O)OC(c2ccccc2)c2ccc(CO)cc2)C1` (stereo not drawn) [Compound 10c, (4-(hydroxymethyl)phenyl)(phenyl)methyl 1-methyl-1,2,5,6-tetrahydropyridine-3-carboxylate], the Ki on hM2 was determined as 980 ± 32 nM. Also, the chromatographic logD in series [1] worked out at 2.8 ± 0.2. At hM1, the Ki was 74 ± 3.2 nM, the “x-Fold Selectivity for hM1 vs. hM2” value is 13.2 x-fold, the “x-Fold Selectivity for hM1 vs. hM3” value is 2.0 x-fold and the “x-Fold Selectivity for hM1 vs. hM4” value is given as 1.3 x-fold. Besides, the “x-Fold Selectivity for hM1 vs. hM5” value on hM1 was determined as 1.0 x-fold.

Regarding `CN1CCC=C(C(=O)OCc2cccc(O)c2)C1` [Compound 18b, 3-hydroxybenzyl 1-methyl-1,2,5,6-tetrahydropyridine-3-carboxylate], the melting point is 115 to 119 °C. Moreover, the Ki on hM2 was above 1000 nM. Moreover, in series [1], the chromatographic logD is 1.57 ± 0.04. For the same molecule, on hM1, the Ki was determined as 259 ± 75 nM, the “x-Fold Selectivity for hM1 vs. hM3” value was 0.7 x-fold, the “x-Fold Selectivity for hM1 vs. hM4” value turned out to be 2.4 x-fold and the “x-Fold Selectivity for hM1 vs. hM5” value is on record as 0.35 x-fold.
